Results: ChEMBL document CHEMBL2074362, “Lithocholic acid decreases expression of bile salt export pump through farnesoid X receptor antagonist activity” (J Biol Chem, 2002)

Target: Bile salt export pump (Homo sapiens, UniProt O95342)
Experiment: TP_TRANSPORTER: Taq-Man PCR in vitro, primary hepatocytes
Format: functional, cell-based, Hepatocyte

Sequence of Bile salt export pump (O95342 whole entry): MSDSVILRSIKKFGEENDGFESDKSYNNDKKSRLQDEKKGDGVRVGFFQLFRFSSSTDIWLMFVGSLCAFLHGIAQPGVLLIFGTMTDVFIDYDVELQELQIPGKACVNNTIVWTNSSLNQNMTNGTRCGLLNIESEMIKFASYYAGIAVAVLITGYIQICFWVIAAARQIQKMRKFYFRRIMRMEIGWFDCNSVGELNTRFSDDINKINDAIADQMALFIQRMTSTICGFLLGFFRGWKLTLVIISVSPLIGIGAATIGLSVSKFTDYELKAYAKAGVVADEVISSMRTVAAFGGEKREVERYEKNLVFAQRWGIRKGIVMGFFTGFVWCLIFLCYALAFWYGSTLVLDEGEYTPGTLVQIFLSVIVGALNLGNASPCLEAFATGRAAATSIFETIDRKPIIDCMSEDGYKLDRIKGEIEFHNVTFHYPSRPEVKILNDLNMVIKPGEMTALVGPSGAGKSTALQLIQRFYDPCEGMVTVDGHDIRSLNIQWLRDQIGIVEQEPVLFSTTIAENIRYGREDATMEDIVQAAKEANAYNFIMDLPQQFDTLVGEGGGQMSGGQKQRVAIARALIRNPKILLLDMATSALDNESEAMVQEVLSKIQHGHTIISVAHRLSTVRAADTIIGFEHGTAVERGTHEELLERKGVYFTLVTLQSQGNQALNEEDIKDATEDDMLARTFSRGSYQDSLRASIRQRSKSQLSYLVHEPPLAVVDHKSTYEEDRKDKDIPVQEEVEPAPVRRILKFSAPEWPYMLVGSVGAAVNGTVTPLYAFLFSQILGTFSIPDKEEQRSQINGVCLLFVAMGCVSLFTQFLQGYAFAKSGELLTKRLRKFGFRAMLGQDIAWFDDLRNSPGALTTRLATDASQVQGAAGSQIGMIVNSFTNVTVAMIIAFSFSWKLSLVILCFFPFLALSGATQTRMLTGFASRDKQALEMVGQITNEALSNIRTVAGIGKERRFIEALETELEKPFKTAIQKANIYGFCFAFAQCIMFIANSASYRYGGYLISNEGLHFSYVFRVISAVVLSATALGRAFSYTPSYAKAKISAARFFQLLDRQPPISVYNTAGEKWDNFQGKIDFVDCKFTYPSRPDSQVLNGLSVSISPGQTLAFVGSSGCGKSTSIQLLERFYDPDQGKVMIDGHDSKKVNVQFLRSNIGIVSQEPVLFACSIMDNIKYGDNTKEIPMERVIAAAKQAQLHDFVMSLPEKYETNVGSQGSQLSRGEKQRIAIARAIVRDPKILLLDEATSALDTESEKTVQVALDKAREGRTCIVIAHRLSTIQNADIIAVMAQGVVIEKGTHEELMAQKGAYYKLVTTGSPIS

Activity: inducer [+]
SMILES: CC(C)c1onc(-c2c(Cl)cccc2Cl)c1COc1ccc(/C=C/c2cccc(C(=O)O)c2)c(Cl)c1
